Data: patent publication US20020068351A1, “Human brain phosphodiesterase” (SmithKline Beecham Corporation, priority 1994, published 2002)
Entries after “also recorded” stand apart in the source; their conditions may differ.

Legend:
hPDE IVB = hPDE IVB (Homo sapiens, UniProt Q07343); assay: PDE assay: cAMP hydrolysis by recombinant hPDE IVB in yeast lysate supernatant
Protocol: PDE Assays and Inhibitor Studies—PDE activity was determined in 100,000×g supernatant fractions of yeast cell lysates. […] For studies in which the IC50s of various inhibitors were determined, compounds were present in the reaction mixture at concentrations that varied over three orders of magnitude. Reactions were conducted at 30° C. for 30 min.
Appropriate corrections were made for the changes in specific activity of the substrate. […] Statistical comparisons between one-site and two-site fits were conducted via F test.

[1] = test system: PDE-deficient mutant cells expressing the human PDE IV; assay: Yeast growth arrest assay in PDE-deficient cells expressing human PDE IV
Protocol: (§1) For heat shock, cells are replicated from the master plate onto two plates each containing the same medium as describe above, one of which is preheated to 55° C. for 1 hour. Cells transferred to the preheated plate are incubated at 55° C. for 5 minutes and then shifted to 30° C. For monitoring growth on acetate, the master plate is replicated to a plate containing the same medium except 2% potassium acetate instead of glucose. Growth is scored after five days at 5 days at 30° C.

wild-type yeast cells = assay: Yeast control: killing of wild-type cells
Protocol: as §1

Sequence of hPDE IVB (Q07343 1-564 isoform Q07343-2): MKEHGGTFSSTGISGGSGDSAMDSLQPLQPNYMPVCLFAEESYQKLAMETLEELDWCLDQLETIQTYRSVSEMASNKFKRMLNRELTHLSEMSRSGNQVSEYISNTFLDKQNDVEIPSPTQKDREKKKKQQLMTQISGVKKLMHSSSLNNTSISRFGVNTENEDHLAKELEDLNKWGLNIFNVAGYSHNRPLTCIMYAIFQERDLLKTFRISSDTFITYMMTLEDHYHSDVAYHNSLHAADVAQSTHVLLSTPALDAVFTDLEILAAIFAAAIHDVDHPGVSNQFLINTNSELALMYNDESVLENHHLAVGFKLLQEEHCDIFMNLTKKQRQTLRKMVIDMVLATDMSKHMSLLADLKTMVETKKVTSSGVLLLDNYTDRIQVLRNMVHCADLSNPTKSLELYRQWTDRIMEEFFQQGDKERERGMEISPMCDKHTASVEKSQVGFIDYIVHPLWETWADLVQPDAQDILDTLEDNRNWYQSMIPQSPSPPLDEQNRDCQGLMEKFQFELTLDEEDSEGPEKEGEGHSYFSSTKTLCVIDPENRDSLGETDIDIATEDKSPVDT

Structure (SMILES): Nc1nc2c(ncn2[C@@H]2O[C@@H]3COP(=O)(O)O[C@H]3[C@H]2O)c(=O)[nH]1 [cGMP]
- hydrolysis of cGMP as substrate (hPDE IVB; hPDE IVB, substrate concentrations as great as 10 mM): very poor activity; also recorded: No detectable hydrolysis
- Km (hPDE IVB; substrate of hPDE IVB): > 10 mM

Structure (SMILES): COc1ccc(C2CNC(=O)C2)cc1OC1CCCC1 (stereo not drawn) [rolipram]
- cytotoxicity ([1]; under growth arrest conditions): cytotoxic
- killing effect ([1]; under normal growth conditions): no killing effect
- killing effect (wild-type yeast cells): no killing effect

Structure (SMILES): CN/C(=N\c1ccc(C2=NNC(=O)CC2C)cc1)NC#N (stereo not drawn) [siquazodan, siguazodan]
- IC50 (hPDE IVB): > 30 µM
